From patent publication US11203577B2, “Sulfonyl-structure-containing triazinone derivatives, their preparation methods and their uses in insect killing and/or bacterium killing” (Nankai University, priority 2017, dated 2021)
Like-named read-outs stand apart in the source and are kept apart here.

What was measured:
Cucumber fusarium wilt = experiment: In vitro fungicidal activity, PDA colony diameter; type: cell-based; settings: 96 h, 50 mg/kg, inhibition of colony diameter, read-out: Fungicidal activity (%) Cucumber fusarium wilt
[1] = system: Cercospora brown spot of peanut; experiment: In vitro fungicidal activity, PDA colony diameter; type: cell-based; settings: 96 h, 50 mg/kg, inhibition of colony diameter, read-out: Fungicidal activity (%) Cercospora brown spot of peanut
Tomato early blight = experiment: In vitro fungicidal activity, PDA colony diameter; type: cell-based, Alternaria solani; settings: 50 mg/kg, inhibition of colony diameter; read-out: Fungicidal activity (%) Tomato early blight
Wheat head blight = experiment: whole plant or invertebrate; type: cell-based; settings: Triticum aestivum, read-out: Fungicidal activity (%) Wheat head blight
Rice bakanae disease = experiment: In vitro fungicidal activity, PDA colony diameter; type: cell-based; settings: read-out: Fungicidal activity (%) Rice bakanae disease
Sclerotinia rot of colza = experiment: In vitro fungicidal activity, PDA colony diameter; type: cell-based; settings: 96 h, 50 mg/kg, inhibition of colony diameter, read-out: Fungicidal activity (%) Sclerotinia rot of colza
Apple ring rot = experiment: In vitro fungicidal activity, PDA colony diameter; type: cell-based; settings: inhibition of colony diameter
Outline: (§1)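 Mycelial plugs cut from the edge of 7-day PDA colonies placed on PDA containing 50 mg/kg compound or on compound-free PDA, grown 4 days. Colony diameters measured; percent inhibition calculated against untreated control.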

[2] = system: Capsicum phytophthora blight; experiment: In vitro fungicidal activity, PDA colony diameter; type: cell-based; settings: 96 h
Outline: as §1

Wheat sheath blight = experiment: In vitro fungicidal activity, PDA colony diameter; type: cell-based; settings: 50 mg/kg, inhibition of colony diameter; read-out: Fungicidal activity (%) Wheat sheath blight
[3] = system: Corn southern leaf blight; experiment: In vitro fungicidal activity, PDA colony diameter; type: cell-based; settings: 50 mg/kg, inhibition of colony diameter; read-out: Fungicidal activity (%) Corn southern leaf blight
Watermelon anthracnose = experiment: In vitro fungicidal activity, PDA colony diameter; type: cell-based; settings: read-out: Fungicidal activity (%) Watermelon anthracnose
Potato late blight = experiment: microbe, parasite or virus in culture; type: cell-based; settings: Phytophthora infestans, 96 h, read-out: Fungicidal activity (%) Potato late blight
Rice sheath blight = experiment: In vitro fungicidal activity, PDA colony diameter; type: cell-based; settings: 50 mg/kg, inhibition of colony diameter; read-out: Fungicidal activity (%) Rice sheath blight
Armyworms = experiment: Test of insecticidal activity against armyworms (leaf immersion); settings: 600 mg/kg, 3-4 days
Maize borers = experiment: Test of insecticidal activity against maize borers (leaf immersion); settings: read-out: Mortalities (%) Maize borers
[4] = system: mosquito larvae (Culer pipiens pallens); experiment: Test of insecticidal activity against mosquito larvae (checked after 24 h); settings: 24 h, read-out: Mortalities (%) against mosquito larvae
[5] = system: bean aphides (Aphis laburni Kaltenbach); experiment: Test of insecticidal activity against aphides (leaf immersion, checked after 96 h)
Description: The insecticidal activity against aphides is tested through the following steps: the tested aphides are bean aphides (Aphis laburni Kaltenbach), a normal colony fed with broad bean leaves in a laboratory. The pesticide is weighed, 1 mL DMF is added to dissolve the pesticide, then two drops of emulsifier, Tween-20 are added, and distilled water is added in an appropriate amount; the mixture is stirred to a homogeneous state to prepare pesticide solution at required concentration (see the following table for the specific concentration). […] In a control group, only emulsifier and solvent are added into distilled water, and the mixture is stirred to a homogeneous state.

Cotton bollworms = experiment: Test of insecticidal activity against cotton bollworms (pesticide mixed into feedstuff); settings: read-out: Mortalities (%) Cotton bollworms
Description: Method of testing against cotton bollworms: the pesticide is mixed into the feedstuff, i.e., 3 mL prepared solution is added into about 27 g freshly prepared feedstuff; thus, required concentration is obtained by diluting by 10 times.

[6] = 50 mg/kg, inhibition of colony diameter
[7] = Aphis, 96 h, read-out: Mortalities (%) against aphides

| Structure (SMILES) | inhibition of growth at 50 mg/kg (Cucumber fusarium wilt) | inhibition of growth at 50 mg/kg [1] | inhibition at 50 mg/kg (Tomato early blight) | inhibition at 50 mg/kg (Wheat head blight) | inhibition at 50 mg/kg (Rice bakanae disease; [6]) | inhibition of growth at 50 mg/kg (Sclerotinia rot of colza) | inhibition at 50 mg/kg (Apple ring rot) | inhibition of growth at 50 mg/kg [2] | inhibition at 50 mg/kg (Wheat sheath blight) | inhibition at 50 mg/kg [3] | inhibition at 50 mg/kg (Watermelon anthracnose; [6]) | inhibition of growth at 50 mg/kg (Potato late blight) | inhibition at 50 mg/kg (Rice sheath blight) | Mortalities (%) Armyworms (Armyworms) | mortality at 600 mg/kg (Maize borers) | mortality at 10 mg/kg [4] | mortality at 10 mg/kg [5, 7] | mortality at 100 mg/kg [5, 7] | mortality at 600 mg/kg [5, 7] | mortality at 600 mg/kg (Cotton bollworms) | further results |
| --- | --- | --- | --- | --- | --- | --- | --- | --- | --- | --- | --- | --- | --- | --- | --- | --- | --- | --- | --- | --- | --- |
| CC1=NNC(=O)N(NS(=O)(=O)c2cn(C)cn2)C1 [Ia-31, 1-methyl-N-(6-methyl-3-oxo-2,3-dihydro-1,2,4-triazin-4(5H)-yl)-1H-imidazolyl-4-sulfonamide] | 14.7% | 13% | 16.1% | 17.2% | 12.5% | 31.6% | 29.4% | 18.8% | 47.1% | 2.6% | 28.1% | 18.8% | 5.8% | 10% | 15% | 60% | 35% | 100% | 100% | 5% | – |
| CC1=NNC(=O)N(NS(=O)(=O)c2cn(C)c(C)n2)C1 [Ia-32, 1,2-dimethyl-N-(6-methyl-3-oxo-2,3-dihydro-1,2,4-triazin-4(5H)-yl)-1H-imidazolyl-4-sulfonamide] | 8.8% | 26.1% | 16.1% | 12.5% | – | 15.8% | 43.1% | 9.4% | 30.9% | 7.7% | – | 18.8% | 10.5% | 5% | 0% | 20% | 30% | 100% | 100% | 0% | inhibition at 50 mg/kg (Rice bakanae disease): 18.8%; inhibition at 50 mg/kg (Watermelon anthracnose): 18.8% |
| CC1=NNC(=O)N(NS(=O)(=O)c2ccc3c(c2)CCO3)C1 [Ia-33, N-(6-methyl-3-oxo-2,3-dihydro-1,2,4-triazin-4(5H)-yl)-2,3-dihydrobenzofuran-5-sulfonamide] | 5.1% | 11.5% | 15% | 33.3% | 3.7% | 12.5% | 9.5% | 19.2% | 9.4% | 11.1% | 0% | 19% | 10.7% | 5% | 0% | 85% | – | 40% | 90% | 0% | – |
| CC1=NNC(=O)N(NS(=O)(=O)c2ccc3c(c2)OCCO3)C1 [Ia-34, N-(6-methyl-3-oxo-2,3-dihydro-1,2,4-triazin-4(5H)-yl)-2,3-dihydrobenzo[b][1,4]dioxin-6-sulfonamide] | 8.8% | 13% | 16.1% | 10.9% | 12.5% | 6.6% | 39.2% | 18.8% | 36.8% | 10.3% | – | 3.1% | 4.7% | 15% | 10% | 15% | – | 35% | 90% | 10% | inhibition at 50 mg/kg (Watermelon anthracnose): 18.8% |
| CC1=NNC(=O)N(N(S(C)(=O)=O)S(C)(=O)=O)C1 [Ib-1, N-(6-methyl-3-oxo-2,3-dihydro-1,2,4-triazin-4(5H)-yl)-N-(methylsulfonyl)-methylsulfonylamide] | 0% | 15.8% | 23.8% | 6.7% | 44.4% | 36.7% | 20.7% | 26.5% | 56.8% | 12.5% | 20.8% | 29.6% | 34.9% | 15% | 10% | 35% | 100% | 100% | 100% | 30% | insecticidal activity against aphides compared with pymetrozine ([5]; 5 mg/kg): equivalent to the insecticidal activity of pymetrozine; mortality at 5 mg/kg [5, 7]: 20% |
| CCS(=O)(=O)N(N1CC(C)=NNC1=O)S(=O)(=O)CC [Ib-2, n-(ethylsulfonyl)-N-(6-methyl-3-oxo-2,3-dihydro-1,2,4-triazin-4(5H)-yl)-ethylsulfonamide] | 10% | 15.8% | 33.3% | 13.3% | 27.8% | 48.3% | 58.6% | 38.8% | 61.4% | 16.7% | 12.5% | 18.5% | 27% | 5% | 5% | 15% | – | – | 85% | 25% | – |
| CCCS(=O)(=O)N(N1CC(C)=NNC1=O)S(=O)(=O)CCC [Ib-3, N-(6-methyl-3-oxo-2,3-dihydro-1,2,4-triazin-4(5H)-yl)-N-(n-propylsulfonyl)propyl-1-sulfonamide] | 0% | 15.8% | 0% | 10% | 38.9% | 40% | 17.2% | 26.5% | 52.3% | 20.8% | 25% | 22.2% | 38.1% | 10% | 10% | 25% | – | – | 75% | 5% | – |
| CCCCS(=O)(=O)N(N1CC(C)=NNC1=O)S(=O)(=O)CCCC [Ib-4, N-(n-butylsulfonyl)-N-(6-methyl-3-oxo-2,3-dihydro-1,2,4-triazin-4(5H)-yl)-butyl-1-sulfonamide] | 20% | 15.8% | 19% | 3.3% | 50% | 43.3% | 27.6% | 34.7% | 65.5% | 20.8% | 29.2% | 33.3% | 27% | 15% | 10% | 75% | – | – | 90% | 45% | – |
| CC1=NNC(=O)N(N(S(=O)(=O)c2ccc(C)cc2)S(=O)(=O)c2ccc(C)cc2)C1 [Ib-6, 4-methyl-N-(6-methyl-3-oxo-2,3-dihydro-1,2,4-triazin-4(5H)-yl)-N-(4-methylbenzenesulfonyl)benzenesulfonamide] | 0% | 15.8% | 23.8% | 13.3% | – | 15% | 27.6% | 26.5% | 56.8% | 16.7% | 29.2% | 22.2% | 50.8% | 15% | 15% | 35% | 30% | 80% | 100% | 15% | inhibition at 50 mg/kg (Rice bakanae disease): 22.2% |
